Test results as given in US20180092358A1, “HERBICIDAL MIXTURES” (Syngenta Participations AG, priority 2015, published 2018).

Assays:
Type in all cases: in vivo
[1] = tested on: Abutilon theophrasti; assay: Pre-emergence herbicidal activity (glasshouse); conditions: application pre-emergence, 1000 g/Ha, evaluated after 13 days, scale 0-5
Description: (§1) Seeds of a variety of test species were sown in standard soil in pots. After cultivation for one day (pre-emergence) under controlled conditions in a glasshouse (at 24/16° C., day/night; 14 hours light; 65% humidity), the plants were sprayed with an aqueous spray solution derived from the formulation of the technical active ingredient in acetone/water (50:50) solution containing 0.5% Tween 20 (polyoxyethelyene sorbitan monolaurate, CAS RN 9005-64-5). The test plants were then grown in a glasshouse under controlled conditions (at 24/16° C., day/night; 14 hours light; 65% humidity) and watered twice daily. After 13 days, the test was evaluated (5=total damage to plant; 0=no damage to plant).

[2] = tested on: Amaranthus retroflexus; assay: Pre-emergence herbicidal activity (glasshouse); conditions: application pre-emergence, 1000 g/Ha, evaluated after 13 days, scale 0-5
Description: as §1

[3] = tested on: Echinochloa crus-galli; assay: Pre-emergence herbicidal activity (glasshouse); conditions: application pre-emergence, 1000 g/Ha, evaluated after 13 days, scale 0-5
Description: as §1

[4] = tested on: Setaria faberi; assay: Pre-emergence herbicidal activity (glasshouse); conditions: application pre-emergence, 1000 g/Ha, evaluated after 13 days, scale 0-5
Description: as §1

[5] = tested on: Zea mays; assay: Pre-emergence herbicidal activity (glasshouse); conditions: application pre-emergence, 1000 g/Ha, evaluated after 13 days, scale 0-5
Description: as §1

[6] = tested on: Abutilon theophrasti; assay: Post-emergence herbicidal activity (glasshouse); conditions: application post-emergence, 1000 g/Ha, evaluated after 13 days, scale 0-5
Description: (§2) Seeds of a variety of test species were sown in standard soil in pots. After 8 days cultivation (post-emergence) under controlled conditions in a glasshouse (at 24/16° C., day/night; 14 hours light; 65% humidity), the plants were sprayed with an aqueous spray solution derived from the formulation of the technical active ingredient in acetone/water (50:50) solution containing 0.5% Tween 20 (polyoxyethelyene sorbitan monolaurate, CAS RN 9005-64-5). The test plants were then grown in a glasshouse under controlled conditions (at 24/16° C., day/night; 14 hours light; 65% humidity) and watered twice daily. After 13 days, the test was evaluated (5=total damage to plant; 0=no damage to plant).

[7] = tested on: Amaranthus retroflexus; assay: Post-emergence herbicidal activity (glasshouse); conditions: application post-emergence, 1000 g/Ha, evaluated after 13 days, scale 0-5
Description: as §2

[8] = tested on: Echinochloa crus-galli; assay: Post-emergence herbicidal activity (glasshouse); conditions: application post-emergence, 1000 g/Ha, evaluated after 13 days, scale 0-5
Description: as §2

[9] = tested on: Setaria faberi; assay: Post-emergence herbicidal activity (glasshouse); conditions: application post-emergence, 1000 g/Ha, evaluated after 13 days, scale 0-5
Description: as §2

[10] = tested on: Zea mays; assay: Post-emergence herbicidal activity (glasshouse); conditions: application post-emergence, 1000 g/Ha, evaluated after 13 days, scale 0-5
Description: as §2

[11] = tested on: Alopecurus myosuroides; assay: Pre-emergence herbicidal activity (glasshouse); conditions: application pre-emergence, 1000 g/Ha, evaluated after 13 days, scale 0-5
Description: as §1

[12] = tested on: Alopecurus myosuroides; assay: Post-emergence herbicidal activity (glasshouse); conditions: application post-emergence, 1000 g/Ha, evaluated after 13 days, scale 0-5
Description: as §2

Compound	damage to plant score, ABUTH [1]	damage to plant score, AMARE [2]	damage to plant score, ECHCG [3]	damage to plant score, SETFA [4]	damage to plant score, ZEAMX [5]	damage to plant score, ABUTH [6]	damage to plant score, AMARE [7]	damage to plant score, ECHCG [8]	damage to plant score, SETFA [9]	damage to plant score, ZEAMX [10]	damage to plant score, ALOMY [11]	damage to plant score, ALOMY [12]
CCO[C@@H]1C(O)N(c2cc(C(C)(C)C)on2)C(=O)N1C (single isomer, unassigned) [Compound 1.6]	5	5	4	1	2	5	5	5	5	4	–	–
CON1C(=O)N(c2cc(C(F)(F)F)ccn2)C(O)C1C (stereo not shown) [Compound 1.1, 4-hydroxy-1-methoxy-5-methyl-3-[4-(trifluoromethyl)-2-pyridyl]imidazolidin-2-one]	5	5	4	5	2	5	5	5	5	2	4	5
CC1C(O)N(c2cc(C(F)(F)F)ccn2)C(=O)N1C (stereo not shown) [Compound 1.2, 4-hydroxy-1,5-dimethyl-3-[4-(trifluoromethyl)-2-pyridyl]imidazolidin-2-one]	5	5	4	5	3	5	5	5	5	4	4	5
CCOC1C(O)N(c2cc(C(F)(F)F)ccn2)C(=O)N1C (stereo not shown) [Compound 1.3, 5-ethoxy-4-hydroxy-1-methyl-3-[4-(trifluoromethyl)-2-pyridyl]imidazolidin-2-one]	5	5	5	5	3	5	5	5	5	4	4	5
CN1CC(O)N(c2cc(C(F)(F)F)ccn2)C1=O (stereo not shown) [Compound 1.4, 4-hydroxy-1-methyl-3-[4-(trifluoromethyl)-2-pyridyl]imidazolidin-2-one]	5	5	5	4	3	5	5	5	5	5	4	5
CC1C(O)N(c2cc(C(F)(F)F)n(C)n2)C(=O)N1C (stereo not shown) [Compound 1.5, 4-hydroxy-1,5-dimethyl-3-[1-methyl-5-(trifluoromethyl)pyrazol-3-yl]imidazolidin-2-one]	5	5	4	4	4	5	5	5	5	4	4	5
